Test results from patent US20130281449A1, “Oxazine Derivatives and their Use in the Treatment of Neurological Disorders” (NOVARTIS AG, priority 2011, published 2013).
pIC50: −log10 of the molar value. Structures can show the parent of a compound that is named as a salt.

Tests used:
Human BACE-1 = Human BACE-1 (Homo sapiens, UniProt P56817); assay: Test 1: Inhibition of Human BACE-1; format: biochemical; details: mean IC50 values in Test 1; recombinant BACE-1, pH 4.5
Procedure: Test 1: Inhibition of Human BACE-1
IC50 values are calculated from percentage of inhibition of BACE-1 activity as a function of the test compound concentration.

[1] = tested on: Cellular Release of Amyloid Peptide 1-40; assay: Test 4: Inhibition of Cellular Release of Amyloid Peptide 1-40; format: cell-based, Chinese hamster; details: Cricetulus griseus, 24 h; read-out: Amyloid-β1-40 release IC50
Procedure: Chinese hamster ovary cells are transfected with the human gene for amyloid precursor protein. The cells are plated at a density of 8000 cells/well into 96-well microtiter plates and cultivated for 24 hours in DMEM cell culture medium containing 10% FCS. The test compound is added to the cells at various concentrations, and the cells are cultivated for 24 hours in the presence of the test compound. […] The potency of the compound is calculated from the percentage of inhibition of amyloid peptide release as a function of the test compound concentration.

Chain of Human BACE-1 (P56817 46-457 limits assumed): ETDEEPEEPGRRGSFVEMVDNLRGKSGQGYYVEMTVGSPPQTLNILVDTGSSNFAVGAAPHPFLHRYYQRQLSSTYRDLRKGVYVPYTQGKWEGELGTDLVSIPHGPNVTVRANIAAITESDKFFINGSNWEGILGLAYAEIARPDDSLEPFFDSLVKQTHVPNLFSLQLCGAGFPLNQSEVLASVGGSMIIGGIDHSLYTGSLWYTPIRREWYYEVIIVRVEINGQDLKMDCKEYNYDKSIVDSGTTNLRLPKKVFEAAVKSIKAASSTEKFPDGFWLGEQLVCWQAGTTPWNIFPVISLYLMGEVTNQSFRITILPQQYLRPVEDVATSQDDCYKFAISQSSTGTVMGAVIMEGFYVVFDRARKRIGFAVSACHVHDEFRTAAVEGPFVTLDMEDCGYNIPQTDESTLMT

SMILES	pIC50 (Human BACE-1)	pIC50 [1]
COc1cnc(C(=O)Nc2ccc(F)c([C@]3(C)CO[C@@](C)(C(F)(F)F)C(N)=N3)c2)c(Cl)c1 [Example 18, 3-Chloro-5-methoxy-pyridine-2-carboxylic acid [3-((3R,6R)-5-amino-3,6-dimethyl-6-trifluoromethyl-3,6-dihydro-2H-[1,4]oxazin-3-yl)-4-fluoro-phenyl]-amide hydrochloride]	7.70	8.05
C[C@@]1(c2cc(NC(=O)c3ncc(Cl)cc3F)ccc2F)CO[C@@](C)(C(F)(F)F)C(N)=N1 [Example 21, 5-Chloro-3-fluoro-pyridine-2-carboxylic acid [3-((3R,6R)-5-amino-3,6-dimethyl-6-trifluoromethyl-3,6-dihydro2H-[1,4]oxazin-3-yl)-4-fluoro-phenyl]-amide hydrochloride]	7.92	8.05
Cc1nc(C(=O)Nc2ccc(F)c([C@]3(C)CO[C@@](C)(C(F)(F)F)C(N)=N3)c2)c(C)o1 [Example 23, 2,5-Dimethyl-oxazole-4-carboxylic acid [3-((3R,6R)-5-amino-3,6-dimethyl-6-trifluoromethyl-3,6-dihydro-2H-[1,4]oxazin-3-yl)-4-fluoro-phenyl]-amide hydrochloride]	7.17	6.80
C#CCOc1cnc(C(=O)Nc2ccc(F)c([C@]3(C)CO[C@@](C)(C(F)(F)F)C(N)=N3)c2)c(N)n1 [Example 25, 3-Amino-5-prop-2-ynyloxy-pyrazine-2-carboxylic acid [3-((3R,6R)-5-amino-3,6-dimethyl-6-trifluoromethyl-3,6-dihydro-2H-[1,4]oxazin-3-yl)-4-fluoro-phenyl]-amide]	9.00	9.00
C[C@@]1(c2cc(NC(=O)c3ncc(C(F)F)cc3N)ccc2F)CO[C@@](C)(C(F)(F)F)C(N)=N1 [Example 29, 3-Amino-5-difluoromethyl-pyridine-2-carboxylic acid [3-((3R,6R)-5-amino-3,6-dimethyl-6-trifluoromethyl-3,6-dihydro-2H-[1,4]oxazin-3-yl)-4-fluoro-phenyl]-amide]	7.85	8.00
COc1cc(C(F)F)c(C(=O)Nc2ccc(F)c([C@]3(C)CO[C@@](C)(C(F)(F)F)C(N)=N3)c2)nn1 [Example 30, 4-Difluoromethyl-6-methoxy-pyridazine-3-carboxylic acid [3-((3R,6R)-5-amino-3,6-dimethyl-6-trifluoromethyl-3,6-dihydro-2H-[1,4]oxazin-3-yl)-4-fluoro-phenyl]-amide hydrochloride]	6.82	7.21
[2H]C([2H])([2H])OCc1cc(C#N)cnc1C(=O)Nc1ccc(F)c([C@]2(C)CO[C@@](C)(C(F)(F)F)C(N)=N2)c1 [Example 31, 5-Cyano-3-trideuteromethoxymethyl-pyridine-2-carboxylic acid [3-((3R,6R)-5-amino-3,6-dimethyl-6-trifluoromethyl-3,6-dihydro-2H-[1,4]oxazin-3-yl)-4-fluoro-phenyl]-amide]	7.96	8.05
[2H]C([2H])([2H])OC([2H])([2H])c1cc2c(Cl)c[nH]c2nc1C(=O)Nc1ccc(F)c([C@]2(C)CO[C@@](C)(C(F)(F)F)C(N)=N2)c1 [Example 33, 3-Chloro-5-trideuteromethoxy-dideuteromethyl-1H-pyrrolo[2,3-b]pyridine-6-carboxylic acid [3-((3R,6R)-5-amino-3,6-dimethyl-6-trifluoromethyl-3,6-dihydro-2H-[1,4]oxazin-3-yl)-4-fluoro-phenyl]-amide]	7.89	7.39
C[C@@]1(c2cc(NC(=O)c3ncc(C(F)(F)F)cc3Cl)ccc2F)CO[C@@](C)(C(F)(F)F)C(N)=N1 [Example 34, 3-Chloro-5-trifluoromethyl-pyridine-2-carboxylic acid [3-((3R,6R)-5-amino-3,6-dimethyl-6-trifluoromethyl-3,6-dihydro-2H-[1,4]oxazin-3-yl)-4-fluoro-phenyl]-amide]	7.80	8.00
Cc1cc(OC(F)F)cnc1C(=O)Nc1ccc(F)c(C2(C)COC(CF)(CF)C(N)=N2)c1 (stereo not shown) [Example 39, 5-Difluoromethoxy-3-methyl-pyridine-2-carboxylic acid [3-(5-amino-6,6-bis-fluoromethyl-3-methyl-3,6-dihydro-2H-[1,4]oxazin-3-yl)-4-fluoro-phenyl]-amide]	6.52	7.66
Cc1cc(Cl)cnc1C(=O)Nc1ccc(F)c(C2(C)COC(CF)(CF)C(N)=N2)c1 (stereo not shown) [Example 41, 5-Chloro-3-methyl-pyridine-2-carboxylic acid [3-(5-amino-6,6-bis-fluoromethyl-3-methyl-3,6-dihydro-2H-[1,4]oxazin-3-yl)-4-fluoro-phenyl]-amide]	7.32	7.89
N#Cc1cnc(C(=O)Nc2ccc(F)c([C@]3(CF)COC(CF)(CF)C(N)=N3)c2)c(Cl)c1 [Example 43, 3-Chloro-5-cyano-pyridine-2-carboxylic acid [3-((R)-5-amino-3,6,6-tris-fluoromethyl-3,6-dihydro-2H-[1,4]oxazin-3-yl)-4-fluoro-phenyl]-amide]	7.62	7.66
COc1ccc(C(=O)Nc2ccc(F)c([C@]3(C)CO[C@@](C)(C(F)(F)F)C(N)=N3)c2)c(N)n1 [Example 44, 2-Amino-N-[3-((3R,6R)-5-amino-3,6-dimethyl-6-trifluoromethyl-3,6-dihydro-2H-[1,4]oxazin-3-yl)-4-fluoro-phenyl]-6-methoxy-nicotinamide]	6.66	7.10
COc1ccc(C(=O)Nc2ccc(F)c([C@]3(C)CO[C@@](C)(C(F)(F)F)C(N)=N3)c2)c(Cl)n1 [Example 45, N-[3-((3R,6R)-5-Amino-3,6-dimethyl-6-trifluoromethyl-3,6-dihydro-2H-[1,4]oxazin-3-yl)-4-fluoro-phenyl]-2-chloro-6-methoxy-nicotinamide]	5.59	6.14

Now from value to molecule:

pIC50 (Human BACE-1)	pIC50 [1]	SMILES
8.30	7.59	Cc1cc(Cl)cnc1C(=O)Nc1ccc(F)c([C@]2(C)CO[C@@](C)(C(F)(F)F)C(N)=N2)c1 [Example 20, 5-Chloro-3-methyl-pyridine-2-carboxylic acid [3-((3R,6R)-5-amino-3,6-dimethyl-6-trifluoromethyl-3,6-dihydro-2H-[1,4]oxazin-3-yl)-4-fluoro-phenyl]-amide hydrochloride]
7.70	8.15	Cl.[2H]C([2H])([2H])Oc1cnc(C(=O)Nc2ccc(F)c([C@]3(C)CO[C@@](C)(C(F)(F)F)C(N)=N3)c2)c(Cl)c1 [Example 22, 3-Chloro-5-trideutero-methoxy-pyridine-2-carboxylic acid [3-((3R,6R)-5-amino-3,6-dimethyl-6-trifluoromethyl-3,6-dihydro-2H-[1,4]oxazin-3-yl)-4-fluoro-phenyl]-amide hydrochloride]
7.85	8.22	Cc1cc(OC(F)F)cnc1C(=O)Nc1ccc(F)c([C@]2(C)CO[C@@](C)(C(F)(F)F)C(N)=N2)c1 [Example 24, 5-Difluoromethoxy-3-methyl-pyridine-2-carboxylic acid [3-((3R,6R)-5-amino-3(6-dimethyl-6-trifluoromethyl-3,6-dihydro-2H-[1,4]oxazin-3-yl)-4-fluoro-phenyl]-amide hydrochloride]
7.80	8.00	Cc1cc(C(F)F)cnc1C(=O)Nc1ccc(F)c([C@]2(C)CO[C@@](C)(C(F)(F)F)C(N)=N2)c1 [Example 27, 5-Difluoromethyl-3-methyl-pyridine-2-carboxylic acid [3-((3R,6R)-5-amino-3,6-dimethyl-6-trifluoromethyl-3,6-dihydro-2H-[1,4]oxazin-3-yl)-4-fluoro-phenyl]-amide hydrochloride]
8.00	8.10	C[C@@]1(c2cc(NC(=O)c3ncc(C(F)F)nc3N)ccc2F)CO[C@@](C)(C(F)(F)F)C(N)=N1 [Example 28, 3-Amino-5-difLuoromethyl-pyrazine-2-carboxylic acid [3-((3R,6R)-5-amino-3,6-dimethyl-6-trifluoromethyl-3,6-dihydro-2H-[1,4]oxazin-3-yl)-4-fluoro-phenyl]-amide]
7.70	7.96	C[C@@]1(c2cc(NC(=O)c3ncc(C(F)F)cc3Cl)ccc2F)CO[C@@](C)(C(F)(F)F)C(N)=N1 [Example 32, 3-Chloro-5-difluormethyl-pyridine-2-carboxylic acid [3-((3R,6R)-5-amino-3,6-dimethyl-6-trifluoromethyl-3,6-dihydro-2H-[1,4]oxazin-3-yl)-4-fluoro-phenyl]-amide]
7.55	7.74	[2H]C([2H])([2H])Oc1cnc(C(=O)Nc2ccc(F)c([C@]3(C)CO[C@@](C)(C(F)(F)F)C(N)=N3)c2)c(C)c1 [Example 36, 5-Trideuteromethoxy-3-methyl-pyridine-2-carboxylic acid [3-((3R,6R)-5-amino-3,6-dimethyl-6-trifluoromethyl-3,6-dihydro-2H-[1,4]oxazin-3-yl)-4-fluoro-phenyl]-amide]
7.54	8.40	Cc1cc(OC(F)F)cnc1C(=O)Nc1ccc(F)c([C@]2(C)COC(CF)(CF)C(N)=N2)c1 [Example 40, 5-Difluoromethoxy-3-methyl-pyridine-2-carboxylic acid [3-((R)-5-amino-6,6-bis-fluoromethyl-3-methyl-3,6-dihydro-2H-[1,4]oxazin-3-yl)-4-fluoro-phenyl]-amide]
7.92	7.89	Cc1cc(C#N)cnc1C(=O)Nc1ccc(F)c([C@]2(CF)COC(CF)(CF)C(N)=N2)c1 [Example 42, 5-Cyano-3-methyl-pyridine-2-carboxylic acid [3-((R)-5-amino-3,6,6-tris-fluoromethyl-3,6-dihydro-2H-[1,4]oxazin-3-yl)-4-fluoro-phenyl]-amide]
